Test results as given in US20230103444A1 (The Regents of the University of Colorado, a Body Corporate, priority 2020, published 2023).
Like-named read-outs stand apart in the source and are kept apart here.

Legend:
SW620 tumor organoids [1] = experiment: Western blot of treated SW620 tumor organoids; format: cell-based, human
Protocol: CRC cell lines and homogenized tumor tissue samples from mice were resuspended in RIPA lysis buffer (20 mM Tris-HCl (pH 7.5), 150 mM NaCl, 1 mM Na2EDTA, 1 mM EGTA, 1% NP-40, 1% sodium deoxycholate, 2.5 mM sodium pyrophosphate, 1 mM b-glycerophosphate, 1 mM Na3VO4, 0.1 mM PMSF. Protein concentration was determined using the Pierce™ BCA protein assay kit (ThermoFisher, Waltham, Mass.). Forty micrograms of sample were run on 10% Bis-Tris gels. Following electrophoresis, the proteins were transferred to a nitrocellulose membrane. The membranes were blocked at room temperature with 5% non-fat milk in TBS/Tween® 20 (TBST contains 20 mM Tris, 150 mM NaCl, and 0.1% Tween®20 (Croda International PLC, Snaith, UK) for 1 hour at room temperature. Membranes were washed three times with TBST. Blots were incubated with the appropriate primary antibody in 5% nonfat milk in TBST overnight at 4° C. Membranes were washed three times with TBST and then incubated with appropriate secondary antibody for one hour. Membranes were washed again with TBST three times. Blots were exposed using SuperSignal™West Pico PLUS Chemiluminescent Substrate (ThermoFisher, Waltham, Mass.) and imaged using a ChemiDoc imaging system (Bio-Rad, Hercules, Calif.). [See: Abbott et al., 2020 and its Supplementary Information for Western Blots]

SW620 tumor organoids [2] = experiment: Synergy studies with SN38 (LOEWE synergy scores); format: cell-based, human; set-up: key to LOEWE Synergy Score: % response beyond expectation; <-10 antagonism, -10–10 additive, >10 synergy; conditions: for LOEWE Synergy Score: compound at its IC50 (6: 5 μM; 6.3, 6.11: 3 μM)
Protocol: Cell based cytotoxicity dose response and combination studies. […] Plates were then incubated for 3 days before treatment.
(e.g., synergy score 20 corresponds to 20% of response beyond expectation). According to our experience, the synergy scores near 0 gives limited confidence on synergy or antagonism.
When the synergy score is: • Less than −10: the interaction between two drugs is likely to be antagonism; • From −10 to 10: the interaction between two drugs is likely to be additivity; • Larger than 10: the interaction between two drugs is likely to be synergy.

SW620 tumor organoids [3] = experiment: Tumor organoid cytotoxicity (CellTiter-Glo 3D); conditions: Homo sapiens
[4] = system: vimentin promoter activity; experiment: VimPro-GFP reporter 3D high-content imaging in tumor organoids; format: cell-based, human; conditions: 72 h
Protocol: After validating hits 5-7 against CHD1L mediated TCF transcription, the ability of these compounds to reverse EMT and other malignant properties in CRC were evaluated. E-cadherin and vimentin are putative biomarkers for the epithelial and mesenchymal phenotypes, respectively. [McDonald et al., 2015] Loss of E-cadherin and gain of vimentin are also clinical biomarkers of poor prognosis. [Yun et al., 2014; Richardson et al., 2012; Dhanasekaran et al., 2001; Kashiwagi et al., 2010; Toiyama et al., 2013] Accordingly, lentiviral promoter driven reporters for E-cadherin (pCDH1-EcadPro-RFP) and vimentin (pCDH1-VimPro-GFP) were developed, which faithfully report E-cadherin and vimentin protein expression, respectively. [Zhou et al., 2016; Abraham et al., 2019] SW620 cells transduced with either EcadPro-RFP or VimPro-GFP were cultured as tumor organoids for 72 h, reaching a diameter of 600 μm. Tumor organoids were treated with compounds 5-7 for an additional 72 h to determine the effective concentration 50 percent (EC50) for modulating promoter activity. Changes in promoter expression was quantified using a 3D confocal image […] based high-content analysis algorithm (FIG. 2A-2B). [Zhou et al., 2016; Abraham et al., 2019]
Stable VimPro-GFP or EcadPro-RFP SW620 reporter cells were generated using pCDH imPro-GFP-EF1-puro virus or pCDH-EcadPro-mCherry-EF1-puro virus as previously reported. [Zhou et al., 2016; Abraham et al., 2019] The stable fluorescently labeled reporter cells were used to generate tumor organoids as described herein. Tumor organoids were treated with CHD1L inhibitors at 10 μM for an additional 72 h. Following treatment, tumor organoids were stained with 16 μM of Hoechst 33342 for 1 h (nuclei stain). Images were taken with a 5× air objective. Z-stacks were set at 26.5 μm apart for a total of 15 optical slices. Imaging and high-content analysis were performed using an Opera Phenix™ and Harmony® software (PerkinElmer, Hopkinton, Mass.). Nuclei were identified within each layer and cells were found with either GFP or mCherry channel. The fluorescence intensities of each channel were calculated and thresholds were set based on the background intensities. Percentages of GFP or mCherry RFP positive cells were calculated and normalized to the DMSO treated group.
3D High-Content Imaging and Analysis of EMT Dual-Reporter Activity. Tumor organoids were imaged using the Opera Phenix high-content screening system (PerkinElmer) in confocal mode utilizing a 10× air objective (NA 0.3). […] Organoids were also imaged in Brightfield to segment and perform high-content analysis of dual reporter specific fluorescence intensity. […] Both fluorescent signals were quantified and normalized as previously described. […]

[5] = SW-620, read-out: Tumor Organoid Cytotoxicity IC50 (μM) SW620

SMILES	E-cadherin cleavage (marker of apoptosis) (SW620 tumor organoids [1])	cleaved PARP1, cleaved caspase 8 and cleaved caspase 3 (SW620 tumor organoids [1]; relative to DMSO control)	LOEWE Synergy Score (SW620 tumor organoids [2]; SN38 0.64 nM)	LOEWE Synergy Score (SW620 tumor organoids [2]; SN38 16 nM)	LOEWE Synergy Score (SW620 tumor organoids [2]; SN38 80 nM)	LOEWE Synergy Score (SW620 tumor organoids [2]; SN38 400 nM)	LOEWE Synergy Score (SW620 tumor organoids [2]; SN38 2000 nM)	LOEWE Synergy Score (SW620 tumor organoids [2]; SN38 10000 nM)	LOEWE Synergy Score (SW620 tumor organoids [2]; SN38 […])	synergism with irinotecan (and SN38), in words (SW620 tumor organoids [2]; killing SW620 tumor organoids)	IC50 (SW620 tumor organoids [3]; [5])	downregulation of vimentin promoter activity (VimPro-GFP), in words ([4]; SW620 or HCT116 tumor organoids)	potency of SN38 combination relative to SN38 alone (SW620 tumor organoids [2]; killing SW620 tumor organoids)	IC50 (SW620 tumor organoids [3]; SW-620, 72 h, read-out: 3 D Cytotoxicity 72 hr IC50 (μM) SW620)	EC50 ([4]; Homo sapiens, SW-620, read-out: EC50 downregulation of vimentin promoter activity, SW620 tumor organoids)
Cc1cc(Nc2ccc(NC(=O)Cc3cccs3)cc2)nc(N2CCCC2)n1 [Compound 6, N-(4-((6-methyl-2-(pyrrolidin-1-yl)pyrimidin-4-yl)amino)phenyl)-2-(thiophen-2-yl)acetamide]	E-cadherin is cleaved	increases in cleaved PARP1, cleaved caspase 8, and cleaved caspase 3	−5	35	45	41	28	16	36	synergism	4.6 µM				
Cc1cc(Nc2ccc(NC(=O)c3c[nH]c4ccccc34)cc2)nc(N2CCCC2)n1 [Compound 6.3, N-(4-((6-methyl-2-(pyrrolidin-1-yl)pyrimidin-4-yl)amino)phenyl)-1H-indole-3-carboxamide]			4	36	54	48	35	25	31	synergism	3.8 µM	downregulation of vimentin	150 fold	3.6 µM	
COc1ccc(-c2nc(S(=O)(=O)c3ccccc3)c(S(C)(=O)=O)o2)cc1 [Compound 5]	E-cadherin is cleaved														15.6 ± 1.7 µM
